Measurements taken from patent US11207322B2, “Method and composition related to combination therapy for addiction” (Board of Regents, The University of Texas System, priority 2017, dated 2021).
Entries after “also recorded” stand apart in the source; their conditions may differ.

Tests used:
humans [1] = settings: cited from earlier work
5-HT2C receptors = settings: in vivo; cited from earlier work
recreational drug users = settings: 20-60 mg; cited from earlier work
[2] = target: T1, 5-HT2C over 5-HT2B receptors (Homo sapiens, UniProt P28335); settings: cited from earlier work
T1 construct: expressed in transfected cells
T1 sequence (P28335 33-458): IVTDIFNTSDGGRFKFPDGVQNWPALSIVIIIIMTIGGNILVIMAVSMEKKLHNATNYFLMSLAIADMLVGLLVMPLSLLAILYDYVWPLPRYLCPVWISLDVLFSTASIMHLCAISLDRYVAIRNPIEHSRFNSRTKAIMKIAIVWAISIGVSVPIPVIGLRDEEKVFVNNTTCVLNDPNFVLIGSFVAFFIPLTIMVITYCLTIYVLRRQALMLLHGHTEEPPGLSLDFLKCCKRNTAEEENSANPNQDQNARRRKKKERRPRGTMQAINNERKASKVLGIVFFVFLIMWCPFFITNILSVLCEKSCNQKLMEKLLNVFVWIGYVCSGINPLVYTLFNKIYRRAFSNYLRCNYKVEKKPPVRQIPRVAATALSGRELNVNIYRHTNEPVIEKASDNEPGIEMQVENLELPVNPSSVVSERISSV

5-HT2A receptor = settings: doses comparable to those required to reduce body weight in rats; cited from earlier work
[3] = target: T2, 5-HT2C over 5-HT2A receptors (Homo sapiens, UniProt P28335); settings: cited from earlier work
T2 construct: expressed in transfected cells
T2 sequence (P28335 33-458): T1 sequence (P28335 33-458)

[4] = test system: rhesus monkeys, responding reinstated by cocaine; assay: cocaine-primed reinstatement of extinguished responding for cocaine; assay type: in vivo, rhesus monkey; settings: 0.32 mg/kg cocaine prime; 4 rhesus monkeys
Procedure: Reinstatement of responding for cocaine.
Experimental design. Monkeys will respond for 0.032 mg/kg/inf cocaine under a FR30:TO180-sec schedule of reinforcement during daily 90-min sessions. During extinction, all stimulus lights will be extinguished with responding being recorded but having no scheduled consequence. During reinstatement tests, the drug-associated stimuli (i.e., the green and red stimulus lights) will be presented according to an FR30:TO180-sec schedule but no infusions will be delivered. Priming infusions of cocaine or saline will be injected directly into the vascular access port (followed by a 5-ml saline flush) 5 min before the start of the session.
The acute effects of lorcaserin (0.1-3.2 mg/kg; SC; 15 min PT) and buspirone (0.1-3.2 mg/kg; SC; 15 min PT) alone will be studied prior to evaluating mixtures. Because the nature of drug-drug interactions can vary depending upon the composition of the mixture, lorcaserin and buspirone will be evaluated over at least three fixed-dose pairs of at least three fixed-ratios (i.e., 3:1, 1:1, and 1:3), using the strategy described above. Mixtures will be based on the effects of lorcaserin and buspirone alone and customized to individual monkeys. […] Additional fixed-ratios mixtures (10:1 or 1:10) will be evaluated if significant, non-additive interactions are observed with either 3:1 or 1:3 ratios, respectively. […]

obese adults = settings: in vivo; cited from earlier work
[5] = test system: rhesus monkeys responding for 0.032 mg/kg/inf cocaine; settings: cited from earlier work; for effectiveness on cocaine self-administration with daily dosing: administered daily for 10-14 days
[6] = e.g., valvulopathies; cited from earlier work
[7] = test system: rhesus monkeys responding for 0.032 mg/kg/inf cocaine; assay: cocaine self-administration under a progressive ratio (PR) schedule; assay type: in vivo, rhesus monkey; settings: for effect on PR responding for cocaine (reinforcing effectiveness of cocaine): 0.032 mg/kg/inf cocaine, 4 rhesus monkeys (2 male, 2 female), acute
[8] = test system: rhesus and cynomolgus monkeys; settings: in vivo; cited from earlier work
humans [9] = settings: cited from earlier work; remark: listed apart in the source
DA D3 receptor [10] = target: T3, DA D3 receptor (Homo sapiens, UniProt P35462); settings: cited from earlier work
DA D3 receptor [11] = target: T3, DA D3 receptor; settings: in vivo; cited from earlier work
[12] = functional assays, transfected cells

T3 sequence (P35462 whole entry): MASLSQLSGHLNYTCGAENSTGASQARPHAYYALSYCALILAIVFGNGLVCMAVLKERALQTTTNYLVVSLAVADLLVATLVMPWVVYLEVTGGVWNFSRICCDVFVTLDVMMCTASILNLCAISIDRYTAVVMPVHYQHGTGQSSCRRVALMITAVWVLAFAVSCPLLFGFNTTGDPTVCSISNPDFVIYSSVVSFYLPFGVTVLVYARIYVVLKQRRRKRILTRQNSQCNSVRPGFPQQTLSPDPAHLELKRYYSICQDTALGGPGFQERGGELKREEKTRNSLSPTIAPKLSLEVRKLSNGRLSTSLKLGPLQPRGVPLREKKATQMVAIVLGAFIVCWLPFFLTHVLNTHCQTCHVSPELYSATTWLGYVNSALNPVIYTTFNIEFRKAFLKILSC

CN1CCc2cc(Cl)c(O)cc2[C@H]2c3ccccc3CC[C@@H]21 [ecopipam]
subjective or reinforcing effects of cocaine in humans (humans [1]; doses that did not produce sedation): failed to alter the subjective or reinforcing effects of cocaine

C[C@H](N)Cn1ccc2cc(F)c(Cl)cc21 [Ro 60-0175]
cocaine self-administration and/or reinstatement (5-HT2C receptors): decrease cocaine self-administration and/or inhibit the reinstatement of a response previously reinforced by cocaine

Clc1cncc(N2CCNCC2)n1 [MK 212]
cocaine self-administration and/or reinstatement (5-HT2C receptors): decrease cocaine self-administration and/or inhibit the reinstatement of a response previously reinforced by cocaine

c1cc2c3c(c1)[C@H]1CCC[C@H]1N3CCNC2 [WAY-163909]
cocaine self-administration and/or reinstatement (5-HT2C receptors): decrease cocaine self-administration and/or inhibit the reinstatement of a response previously reinforced by cocaine

C[C@H]1CNCCc2ccc(Cl)cc21 [lorcaserin]
subjective effects of supra-therapeutic doses (recreational drug users): subjective ratings of “high”, “good drug effects” and “hallucination”
selectivity for 5-HT2C over 5-HT2B receptors [2, 12]: ~100 fold
selectivity for (5-HT)2C versus 5-HT2B receptor ([2]; in vitro testing): 100 ×
head-twitches (5-HT2A receptor): produces 5-HT2A receptor-mediated head-twitches
selectivity for 5-HT2C over 5-HT2A receptors [3, 12]: ~20 fold
selectivity over the 5-HT2A receptor ([3]; in vitro testing): 17 ×
effectiveness of cocaine to reinstate extinguished responding for cocaine [4]: dose-dependently decreases
weight loss (obese adults): modest, but sustained weight loss
cocaine self-administration under fixed ratio and PR schedules (earlier report of the inventors) ([5]; acute administration): dose-dependently inhibits cocaine self-administration
effectiveness on cocaine self-administration with daily dosing [5]: retain their effectiveness to reduce cocaine self-administration
persistence of anti-cocaine effects ([5]; repeated (daily) treatment): at least 14 days
cardiovascular complications [6]: devoid of serious cardiovascular complications
effect on PR responding for cocaine (reinforcing effectiveness of cocaine) [7]: inhibited responding in a dose-dependent manner; also recorded: dose-dependently decreases the reinforcing effectiveness of cocaine
sensitivity of females relative to males ([7]; PR schedule, 2 male and 2 female monkeys, females more sensitive): ~3 fold

Clc1cccc(COc2cncc(N3CCNCC3)n2)c1 [CP-809,101]
cocaine self-administration and/or reinstatement (5-HT2C receptors): decrease cocaine self-administration and/or inhibit the reinstatement of a response previously reinforced by cocaine

Clc1cccc(N2CCNCC2)c1 [mCPP, meta-chlorophenylpiperazine]
cocaine self-administration and/or reinstatement (5-HT2C receptors): decrease cocaine self-administration and/or inhibit the reinstatement of a response previously reinforced by cocaine

C[C@@H](Cc1ccccc1)NC(=O)[C@@H](N)CCCCN [lisdexamfetamine]
cocaine self-administration in monkeys (literature) [8]: consistently reduce cocaine self-administration
cocaine abstinence in a clinical setting (humans [9]; doses approved to treat ADHD): often ineffective at improving cocaine abstinence

O=C1CC2(CCCC2)CC(=O)N1CCCCN1CCN(c2ncccn2)CC1 [buspirone]
cocaine self-administration in monkeys (literature) [8]: reliably decreased cocaine self-administration
reinforcing effects of cocaine in a human laboratory study (humans [1]; 30 mg): failed to alter the reinforcing effects of cocaine
effectiveness of cocaine to reinstate extinguished responding for cocaine [4]: dose-dependently decreases
selective binding profile at DA D3 receptors (DA D3 receptor [10]): 5-70 fold
relative potency at 5-HT1A, DA D3, and DA D4 receptors (DA D3 receptor [10]; recent studies): roughly equipotent
effectiveness on cocaine self-administration with daily dosing [5]: retain their effectiveness to reduce cocaine self-administration
dose needed for clinically relevant DA D3 receptor occupancy relative to 60 mg maximal approved dose (DA D3 receptor [11]): at least 3 fold
sex-related difference in promoting abstinence (humans [9]; 60 mg dose): more effective at promoting abstinence in males than in females
abstinence from cocaine use, multi-site randomized double-blind placebo-controlled pilot study (humans [9]; 60 mg): failed to prolong abstinence from cocaine use
cardiovascular complications [6]: devoid of serious cardiovascular complications
effect on PR responding for cocaine (reinforcing effectiveness of cocaine) [7]: inhibited responding in a dose-dependent manner; also recorded: dose-dependently decreases the reinforcing effectiveness of cocaine
potency in males relative to females at decreasing cocaine self-administration ([7]; PR schedule, 2 male and 2 female monkeys, more potent in males): ~10 fold
